Data from PubChem BioAssay (NCI).
Values joined by “and” are separate entries in the source; they are usually repeats but may differ in a detail not shown here. Equal entries are not always repeated.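 In this assay, cells in 96-well plates receive the compound at five concentrations for 48 hours. Endpoints are linearly interpolated between the surrounding concentrations. At the GI50, growth is halved. TGI: concentration producing complete growth inhibition.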

What was measured:
Assay in all cases: NCI tumour cell line growth inhibition, 48 h
786-0 renal = test system: 786-0 renal
A498 renal = test system: A498 renal
A549 NSCLC = test system: A549 NSCLC
ACHN renal = test system: ACHN renal
BT-549 breast = test system: BT-549 breast
CAKI-1 renal = test system: CAKI-1 renal
CCRF-CEM leukemia = test system: CCRF-CEM leukemia
COLO 205 colon = test system: COLO 205 colon
DU-145 prostate = test system: DU-145 prostate
EKVX NSCLC = test system: EKVX NSCLC
HCC-2998 colon = test system: HCC-2998 colon
HCT-116 colon = test system: HCT-116 colon
HCT-15 colon = test system: HCT-15 colon
HL-60(TB) leukemia = test system: HL-60(TB) leukemia
HOP-62 NSCLC = test system: HOP-62 NSCLC
HOP-92 NSCLC = test system: HOP-92 NSCLC
HS 578T breast = test system: HS 578T breast
HT29 colon = test system: HT29 colon
IGROV1 ovarian = test system: IGROV1 ovarian
K-562 leukemia = test system: K-562 leukemia
KM12 colon = test system: KM12 colon
LOX IMVI melanoma = test system: LOX IMVI melanoma
M14 melanoma = test system: M14 melanoma
MALME-3M melanoma = test system: MALME-3M melanoma
MCF7 breast = test system: MCF7 breast
MDA-MB-231 breast = test system: MDA-MB-231 breast
MDA-MB-435 = test system: MDA-MB-435
MOLT-4 leukemia = test system: MOLT-4 leukemia
NCI-H226 lung = test system: NCI-H226 lung
NCI-H23 lung = test system: NCI-H23 lung
NCI-H460 lung = test system: NCI-H460 lung
NCI-H522 lung = test system: NCI-H522 lung
NCI/ADR-RES ovarian = test system: NCI/ADR-RES ovarian
OVCAR-3 ovarian = test system: OVCAR-3 ovarian
OVCAR-4 ovarian = test system: OVCAR-4 ovarian
OVCAR-5 ovarian = test system: OVCAR-5 ovarian
OVCAR-8 ovarian = test system: OVCAR-8 ovarian
PC-3 prostate = test system: PC-3 prostate
RPMI-8226 leukemia = test system: RPMI-8226 leukemia
RXF 393 renal = test system: RXF 393 renal
SF-268 CNS = test system: SF-268 CNS
SF-295 CNS = test system: SF-295 CNS
SF-539 CNS = test system: SF-539 CNS
SK-MEL-2 melanoma = test system: SK-MEL-2 melanoma
SK-MEL-28 melanoma = test system: SK-MEL-28 melanoma
SK-MEL-5 melanoma = test system: SK-MEL-5 melanoma
SK-OV-3 ovarian = test system: SK-OV-3 ovarian
SN12C renal = test system: SN12C renal
SNB-19 CNS = test system: SNB-19 CNS
SNB-75 CNS = test system: SNB-75 CNS
SR leukemia = test system: SR leukemia
SW-620 colon = test system: SW-620 colon
T-47D breast = test system: T-47D breast
TK-10 renal = test system: TK-10 renal
U251 CNS = test system: U251 CNS
UACC-257 melanoma = test system: UACC-257 melanoma
UACC-62 melanoma = test system: UACC-62 melanoma
UO-31 renal = test system: UO-31 renal

With `FC(F)(F)c1ccc(CNc2ccc(Cc3c[nH]c4ncc(Cl)cc34)cn2)cn1` the GI50 (786-0 renal) was 5.33 µM and 4.19 µM, the TGI (786-0 renal) was 19.5 µM and > 10 µM and the GI50 (A498 renal) was 2.08 µM and 4.41 µM. For the same molecule, the TGI (A498 renal) was 14 µM and > 10 µM, the GI50 (A549 NSCLC) was 10.5 µM and > 10 µM and the TGI (A549 NSCLC) was 32.2 µM and > 10 µM. For the same molecule, the GI50 (ACHN renal) was 13.2 µM and > 10 µM, the TGI (ACHN renal) was 36 µM and > 10 µM and the GI50 (BT-549 breast) was 14.5 µM and > 10 µM. The TGI (BT-549 breast) was 34.4 µM and > 10 µM, the GI50 (CAKI-1 renal) was 10.3 µM and > 10 µM and the TGI (CAKI-1 renal) was 30.8 µM and > 10 µM. For the same molecule, the GI50 (CCRF-CEM leukemia) was 13.9 µM and 6.85 µM, the TGI (CCRF-CEM leukemia) was 70.6 µM and > 10 µM and the GI50 (COLO 205 colon) was 5.58 µM and > 10 µM. The TGI (COLO 205 colon) was 20.6 µM and > 10 µM, the GI50 (DU-145 prostate) was 12.4 µM and > 10 µM and the TGI (DU-145 prostate) was 33.6 µM and > 10 µM. For the same molecule, the GI50 (EKVX NSCLC) was 7.89 µM and > 10 µM, the TGI (EKVX NSCLC) was 43.5 µM and > 10 µM and the GI50 (HCC-2998 colon) was 12.5 µM and > 10 µM. For the same molecule, the TGI (HCC-2998 colon) was 30.3 µM and > 10 µM, the GI50 (HCT-116 colon) was 12.3 µM and > 10 µM and the TGI (HCT-116 colon) was 27.4 µM and > 10 µM. For the same molecule, the GI50 (HCT-15 colon) was 10.1 µM and > 10 µM, the TGI (HCT-15 colon) was 27.1 µM and > 10 µM and the GI50 (HL-60(TB) leukemia) was 16.5 µM and > 10 µM. The TGI (HL-60(TB) leukemia) was 49.4 µM and > 10 µM, the GI50 (HOP-62 NSCLC) was 11.4 µM and > 10 µM and the TGI (HOP-62 NSCLC) was 29.4 µM and > 10 µM. The GI50 (HOP-92 NSCLC) was 9.46 µM and 3.77 µM, the TGI (HOP-92 NSCLC) was 28.6 µM and > 10 µM and the GI50 (HS 578T breast) was 3330 nM and 2550 nM. For the same molecule, the TGI (HS 578T breast) was 32.2 µM and > 10 µM, the GI50 (HT29 colon) was 4.89 µM and > 10 µM and the TGI (HT29 colon) was 17.3 µM and > 10 µM. The GI50 (IGROV1 ovarian) was 12.2 µM and > 10 µM, the TGI (IGROV1 ovarian) was 40.7 µM and > 10 µM and the GI50 (K-562 leukemia) was 7.27 µM and 8.71 µM. The TGI (K-562 leukemia) was 44.8 µM and > 10 µM, the GI50 (KM12 colon) was 3.53 µM and 3.56 µM and the TGI (KM12 colon) was 15.3 µM and > 10 µM. The GI50 (LOX IMVI melanoma) was 11.5 µM and > 10 µM, the TGI (LOX IMVI melanoma) was 26.3 µM and > 10 µM and the GI50 (M14 melanoma) was 4.62 µM and > 10 µM. The TGI (M14 melanoma) was 19.2 µM and > 10 µM, the GI50 (MALME-3M melanoma) was 12.3 µM and > 10 µM and the TGI (MALME-3M melanoma) was 30.7 µM and > 10 µM. For the same molecule, the GI50 (MCF7 breast) was 6.34 µM and > 10 µM, the TGI (MCF7 breast) was 33.6 µM and > 10 µM and the GI50 (MDA-MB-231 breast) was 8.7 µM and > 10 µM. For the same molecule, the TGI (MDA-MB-231 breast) was 26.1 µM and > 10 µM, the GI50 (MDA-MB-435) was 5.92 µM and > 10 µM and the TGI (MDA-MB-435) was 22.7 µM and > 10 µM. The GI50 (MOLT-4 leukemia) was 4.02 µM and 3.28 µM, the TGI (MOLT-4 leukemia) was 21.9 µM and > 10 µM and the GI50 (NCI-H226 lung) was 4.91 µM and 3.94 µM. For the same molecule, the TGI (NCI-H226 lung) was 27.2 µM and > 10 µM, the GI50 (NCI-H23 lung) was 10.3 µM and > 10 µM and the TGI (NCI-H23 lung) was 32 µM and > 10 µM. The GI50 (NCI-H460 lung) was 12.9 µM and > 10 µM, the TGI (NCI-H460 lung) was 30 µM and > 10 µM and the GI50 (NCI-H522 lung) was 10.5 µM and > 10 µM. The TGI (NCI-H522 lung) was 29.3 µM and > 10 µM, the GI50 (NCI/ADR-RES ovarian) was 7.68 µM and > 10 µM and the TGI (NCI/ADR-RES ovarian) was 38.7 µM and > 10 µM. For the same molecule, the GI50 (OVCAR-3 ovarian) was 14.4 µM and > 10 µM, the TGI (OVCAR-3 ovarian) was 33.7 µM and > 10 µM and the GI50 (OVCAR-4 ovarian) was 3.6 µM and 6.33 µM. For the same molecule, the TGI (OVCAR-4 ovarian) was 19.2 µM and > 10 µM, the GI50 (OVCAR-5 ovarian) was 23 µM and > 10 µM and the TGI (OVCAR-5 ovarian) was 50.8 µM and > 10 µM. The GI50 (OVCAR-8 ovarian) was 5.34 µM and > 10 µM, the TGI (OVCAR-8 ovarian) was 28.6 µM and > 10 µM and the GI50 (PC-3 prostate) was 9.65 µM and > 10 µM. For the same molecule, the TGI (PC-3 prostate) was 34 µM and > 10 µM, the GI50 (RPMI-8226 leukemia) was 5.76 µM and 5.99 µM and the TGI (RPMI-8226 leukemia) was 44.2 µM and > 10 µM. For the same molecule, the GI50 (RXF 393 renal) was 9.75 µM and > 10 µM, the TGI (RXF 393 renal) was 25.8 µM and > 10 µM and the GI50 (SF-268 CNS) was 6.25 µM and > 10 µM. The TGI (SF-268 CNS) was 29.3 µM and > 10 µM, the GI50 (SF-295 CNS) was 4.83 µM and 5.24 µM and the TGI (SF-295 CNS) was 24.4 µM and > 10 µM. For the same molecule, the GI50 (SF-539 CNS) was 10.6 µM and 8.14 µM, the TGI (SF-539 CNS) was 24.4 µM and > 10 µM and the GI50 (SK-MEL-2 melanoma) was 17.6 µM and > 10 µM. For the same molecule, the TGI (SK-MEL-2 melanoma) was 37.2 µM and > 10 µM, the GI50 (SK-MEL-28 melanoma) was 13.2 µM and > 10 µM and the TGI (SK-MEL-28 melanoma) was 30.2 µM and > 10 µM. For the same molecule, the GI50 (SK-MEL-5 melanoma) was 5.49 µM and 4.3 µM, the TGI (SK-MEL-5 melanoma) was 19.2 µM and > 10 µM and the GI50 (SK-OV-3 ovarian) was 8.8 µM and > 10 µM. For the same molecule, the TGI (SK-OV-3 ovarian) was 32.5 µM and > 10 µM, the GI50 (SN12C renal) was 13.9 µM and > 10 µM and the TGI (SN12C renal) was 30.6 µM and > 10 µM. The GI50 (SNB-19 CNS) was 10.8 µM and > 10 µM, the TGI (SNB-19 CNS) was 37.2 µM and > 10 µM and the GI50 (SNB-75 CNS) was 2200 nM and 2480 nM. For the same molecule, the TGI (SNB-75 CNS) was 13.6 µM and > 10 µM, the GI50 (SR leukemia) was 6.13 µM and 6.63 µM and the TGI (SR leukemia) was 42.2 µM and > 10 µM. The GI50 (SW-620 colon) was 10.6 µM and > 10 µM, the TGI (SW-620 colon) was 26.8 µM and > 10 µM and the GI50 (T-47D breast) was 4.36 µM and 4.5 µM. For the same molecule, the TGI (T-47D breast) was 28.3 µM and > 10 µM, the GI50 (TK-10 renal) was 13.5 µM and > 10 µM and the TGI (TK-10 renal) was 36.4 µM and > 10 µM. For the same molecule, the GI50 (U251 CNS) was 10.1 µM and > 10 µM, the TGI (U251 CNS) was 24.8 µM and > 10 µM and the GI50 (UACC-257 melanoma) was 11.5 µM and > 10 µM. The TGI (UACC-257 melanoma) was 25.8 µM and > 10 µM, the GI50 (UACC-62 melanoma) was 8.56 µM and the TGI (UACC-62 melanoma) was 25 µM. For the same molecule, the GI50 (UO-31 renal) was 3.78 µM and 6.32 µM and the TGI (UO-31 renal) was 17.7 µM and > 10 µM.
